Where a name gives a salt, the structure may show the parent alone. Read-outs that look alike come from different tables or passages of the source.
Assays:
HN5 cells = assay: Roche Cell Death ELISAPlus apoptosis assay in HN5 cells (median effect and sensitization ratio analysis); format: cell-based
Protocol: HN5 cells are LICR-LON-HN5 head and neck carcinoma cells, which were a gift from the Institute of Cancer Research, Surrey, U.K.
(§1) Cell lines were grown in RPMI-1640 supplemented with 25 mM HEPES, 10 mM glutamine and 10% fetal bovine serum and maintained at 37° C. and 5% CO2 in a humid incubator. Assays were performed in 96 well microtiter plates with optimum seeding densities for each cell line.
(§2) Apoptosis was measured using the Roche Cell Death ELISA^Plus kit (catalog 1 774 425) which detects fragmented nucleosomal DNA that is generated during apoptosis.
Synergistic interaction between compounds was analyzed by the median effect method described by Chou and Talalay (Adv. Enzyme Regul. 22: 27-55, 1984). Briefly, if the two compounds fit the mutually exclusive model of Chou, one calculates the combination index (CI) using the formula CI=((D)1/(Dx)1)+((D)2/(Dx)2) (1) where (D)1 is the concentration of drug 1 in the combination that gives “x” percent apoptosis, (D)2 is the same for drug 2, and (Dx)1 and (Dx)2 are the concentrations of drug 1 or 2 that give “x” percent apoptosis when used alone. (D)1 and (D)2 are known from the composition of the combination and (Dx)1 and (Dx)2 can be calculated from the equation Dx=Dm*[fa/(1−fa)]^1/m (2) where Dm is the concentration of drug giving 50% effect, fa is the fraction affected, and m is the slope from the median effect plot of log (fa/fu) where fu is the fraction unaffected versus log (D). A CI less than 1 indicates synergy, equal to 1 indicates additivity and greater than 1 antagonism.
(§3) Sensitization is measured as the ratio between observed and expected apoptosis or caspase activation from a combination of AKT kinase inhibitor and EGFR/erb inhibitor. The expected level of activity (Ae) is calculated by Ae=1−((1−A1)*(1−A2)) (3) where A1 and A2 are the activities of drugs 1 and 2 alone at the concentration used in the combination (Harvey, R. J., J. Theor. Biol. 74: 411-437, 1978).

AKT1 = AKT1 (Homo sapiens, UniProt P31749); assay: Inhibition of AKT isoforms, enzyme IC50; format: biochemical
AKT2 = AKT2 (Homo sapiens, UniProt P31751); assay: Inhibition of AKT isoforms, enzyme IC50; format: biochemical
AKT3 = AKT3 (Homo sapiens, UniProt Q9Y243); assay: Inhibition of AKT isoforms, enzyme IC50; format: biochemical
T47D cells = assay: Roche Cell Death ELISAPlus apoptosis assay in T47D cells (sensitization ratio); format: cell-based, human; conditions: for Apoptosis (FIG. 6): 10 μM GW572016 or 100 μM LY294002 separately
Protocol: T47D cells are human breast ductal carcinoma cells originally obtained from the American Type Culture Collection.
as §1, §2
The expected level of activity (Ae) is calculated by Ae=1−((1−A1)*(1−A2)) (3) where A1 and A2 are the activities of drugs 1 and 2 alone at the concentration used in the combination (Harvey, R. J., J. Theor. Biol. 74: 411-437, 1978).
Apoptosis was measured using the Roche Cell Death ELISA^Plus kit, and the relative percentage of apoptosis was determined for each combination.

MDA-MB468 cells = assay: Roche Cell Death ELISAPlus apoptosis assay in MDA-MB468 cells (sensitization ratio); format: cell-based, human
Protocol: MDA-MB468 cells are human breast adenocarcinoma cells originally obtained from the American Type Culture Collection.
as §1, §2, §3
MDA-MB468 cells were incubated with varied concentrations of GW583340 for 24 h followed by an additional 4 h incubation with varied concentrations of LY294002. Apoptosis was measured using the Roche Cell Death ELISA^Plus kit, and the relative percentage of apoptosis was determined for each combination. When 1, 2, or 5 μM GW583340 were combined with 100 μM LY294002, SR values 3.4, 4.2 and 5.0, respectively, indicated significant synergism. At lower concentrations of LY294002, lesser degrees of synergism were observed.

[1] = HN5, 24 h; concentration of the named drug within the 1:2 GW572016:LY294002 combo at Dm; read-out: Dm, drug in combo
[2] = HN5, 24 h; concentration of the named drug within the 1:10 GW572016:LY294002 combo at Dm; read-out: Dm, drug in combo
[3] = GW572016 2 μM 24 h, then LY294002 0 μM 4 h
[4] = GW572016 5 μM 24 h, then LY294002 0 μM 4 h
[5] = GW572016 10 μM 24 h, then LY294002 0 μM 4 h
[6] = GW583340 1 μM 24 h, then LY294002 0 μM 4 h
[7] = GW583340 2 μM 24 h, then LY294002 0 μM 4 h
[8] = GW583340 5 μM 24 h, then LY294002 0 μM 4 h
[9] = HN5, 24 h; concentration of the named drug within the 1:2 GW589522:LY294002 combo at Dm; read-out: Dm, drug in combo
[10] = HN5, 24 h; concentration of the named drug within the 1:10 GW589522:LY294002 combo at Dm; read-out: Dm, drug in combo
[11] = Homo sapiens, HN5, 24 h; drug alone (Table 3); concentration giving 50% effect; read-out: Dm
[12] = GW572016 0 μM 24 h, then LY294002 20 μM 4 h
[13] = GW572016 0 μM 24 h, then LY294002 50 μM 4 h
[14] = GW572016 0 μM 24 h, then LY294002 100 μM 4 h
[15] = GW583340 0 μM 24 h, then LY294002 4 μM 4 h
[16] = GW583340 0 μM 24 h, then LY294002 10 μM 4 h
[17] = GW583340 0 μM 24 h, then LY294002 20 μM 4 h
[18] = GW583340 0 μM 24 h, then LY294002 50 μM 4 h
[19] = GW583340 0 μM 24 h, then LY294002 100 μM 4 h

Sequence of AKT2 (P31751 whole entry, species assumed, canonical isoform): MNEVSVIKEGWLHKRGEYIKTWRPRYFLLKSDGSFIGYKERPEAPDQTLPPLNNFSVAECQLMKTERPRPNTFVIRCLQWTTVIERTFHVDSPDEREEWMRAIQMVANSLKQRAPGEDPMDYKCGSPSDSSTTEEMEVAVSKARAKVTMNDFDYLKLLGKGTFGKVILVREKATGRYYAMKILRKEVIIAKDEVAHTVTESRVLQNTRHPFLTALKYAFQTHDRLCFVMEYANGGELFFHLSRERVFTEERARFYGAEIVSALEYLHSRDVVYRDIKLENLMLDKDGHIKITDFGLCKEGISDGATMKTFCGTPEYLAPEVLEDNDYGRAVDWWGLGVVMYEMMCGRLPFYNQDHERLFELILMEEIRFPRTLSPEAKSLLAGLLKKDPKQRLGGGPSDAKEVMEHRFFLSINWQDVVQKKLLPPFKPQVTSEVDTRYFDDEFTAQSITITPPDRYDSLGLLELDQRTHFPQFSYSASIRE
Sequence of AKT3 (Q9Y243 whole entry, species assumed, canonical isoform): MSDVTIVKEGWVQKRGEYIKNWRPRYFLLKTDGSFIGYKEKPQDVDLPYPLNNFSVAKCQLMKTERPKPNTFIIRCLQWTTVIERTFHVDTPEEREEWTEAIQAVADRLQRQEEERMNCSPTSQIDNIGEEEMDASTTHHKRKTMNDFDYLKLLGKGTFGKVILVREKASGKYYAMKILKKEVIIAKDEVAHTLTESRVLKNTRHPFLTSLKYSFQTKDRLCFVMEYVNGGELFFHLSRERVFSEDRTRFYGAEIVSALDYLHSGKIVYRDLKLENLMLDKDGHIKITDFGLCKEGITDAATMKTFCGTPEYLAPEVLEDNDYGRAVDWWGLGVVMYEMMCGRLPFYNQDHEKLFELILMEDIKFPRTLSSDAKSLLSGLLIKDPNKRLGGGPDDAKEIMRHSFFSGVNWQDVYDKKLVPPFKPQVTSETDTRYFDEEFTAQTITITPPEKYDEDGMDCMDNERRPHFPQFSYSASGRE
Sequence of AKT1 (P31749 whole entry, species assumed, canonical isoform): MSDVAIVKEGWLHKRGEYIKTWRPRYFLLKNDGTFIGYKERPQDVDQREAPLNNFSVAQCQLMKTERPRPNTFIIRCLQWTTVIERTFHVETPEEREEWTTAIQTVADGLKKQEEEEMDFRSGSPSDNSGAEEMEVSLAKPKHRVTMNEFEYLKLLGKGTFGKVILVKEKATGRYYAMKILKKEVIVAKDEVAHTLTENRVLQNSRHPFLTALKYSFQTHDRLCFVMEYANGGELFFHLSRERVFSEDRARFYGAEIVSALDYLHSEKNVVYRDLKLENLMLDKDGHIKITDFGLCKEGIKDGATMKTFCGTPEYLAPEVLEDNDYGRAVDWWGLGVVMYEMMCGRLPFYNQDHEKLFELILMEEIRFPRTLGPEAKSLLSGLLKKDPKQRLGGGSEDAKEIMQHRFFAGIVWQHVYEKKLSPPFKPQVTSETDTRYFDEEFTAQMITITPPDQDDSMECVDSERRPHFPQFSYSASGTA

CCn1c(-c2nonc2N)nc2cncc(OC3CCNCC3)c21 [Ex 9 (tri-HCl salt), 4-[1-Ethyl-7-(piperidin-4-yloxy)-1H-imidazo[4,5-c]pyridin-2-yl]-furazan-3-ylamine]
Sensitization Ratio in HN5 with 5 μM GW589522A (HN5 cells; HN5; 5 μM GW589522A 24 h, then compound 8 μM 4 h): 10 @ 8 | IC50 (AKT1): 0.05 µM | IC50 (AKT2): 0.27 µM | IC50 (AKT3): 0.19 µM

CS(=O)(=O)CCNCc1ccc(-c2ccc3ncnc(Nc4ccc(OCc5cccc(F)c5)c(Cl)c4)c3c2)o1.Cc1ccc(S(=O)(=O)O)cc1.Cc1ccc(S(=O)(=O)O)cc1.O [GW572016, N-{3-Chloro-4-[(3-fluorobenzyl)oxy]phenyl}-6-[5-({[2-(methanesulphonyl)ethyl]amino}methyl)-2-furyl]-4-quinazolinamine ditosylate monohydrate]
EC50 (HN5 cells; [1]): 7.2 µM | EC50 (HN5 cells; [2]): 5.3 µM | Net Apoptosis (HN5 cells; HN5; GW572016 2 μM 24 h, then Ex 9 0 μM 4 h): −1.0% | Net Apoptosis (HN5 cells; HN5; GW572016 4 μM 24 h, then Ex 9 0 μM 4 h): 2.5% | Net Apoptosis (HN5 cells; HN5; GW572016 10 μM 24 h, then Ex 9 0 μM 4 h): 5.1% | EC50 (HN5 cells; Homo sapiens; HN5, 24 h; drug alone (Table 1); concentration giving 50% effect; read-out: Dm): 10.3 µM | Apoptosis (FIG. 6) (T47D cells): little effect | Net Apoptosis (T47D cells; [3]): 0.4% | Net avg A405 nm (T47D cells; [3]): 0.013 | Net Apoptosis (T47D cells; [4]): 0.3% | Net avg A405 nm (T47D cells; [4]): 0.013 | Net Apoptosis (T47D cells; [5]): 2.2% | Net avg A405 nm (T47D cells; [5]): 0.042

CS(=O)(=O)CCNCc1nc(-c2ccc3ncnc(Nc4ccc(OCc5cccc(F)c5)c(Cl)c4)c3c2)cs1 [GW583340, (4-(3-Fluoro-benzyloxy)-3-chlorophenyl)-(6-(2-((2-methanesulphonyl-ethylamino)-methyl)-thiazol-4-yl)quinazolin-4-yl)-amine]
Net Apoptosis (MDA-MB468 cells; [6]): 4.8% | Net avg A405 nm (MDA-MB468 cells; [6]): 0.294 | Net Apoptosis (MDA-MB468 cells; [7]): 4.2% | Net avg A405 nm (MDA-MB468 cells; [7]): 0.286 | Net Apoptosis (MDA-MB468 cells; [8]): 7.4% | Net avg A405 nm (MDA-MB468 cells; [8]): 0.325

CS(=O)(=O)CCNCc1ccc(-c2ccc3ncnc(Nc4ccc(OCc5cccc(F)c5)c(Br)c4)c3c2)o1 [GW589522, (4-(3-Fluoro-benzyloxy)-3-bromophenyl)-(6-(5-((2-methanesulphonyl-ethylamino)-methyl)-furan-2-yl)quinazolin-4-yl)-amine]
EC50 (HN5 cells; [9]): 8.6 µM | EC50 (HN5 cells; [10]): 4.4 µM | Net Apoptosis (HN5 cells; HN5; GW589522 1.56 μM 24 h, then Ex 9 0 μM 4 h): −1.0% | Net Apoptosis (HN5 cells; HN5; GW589522 3.12 μM 24 h, then Ex 9 0 μM 4 h): 2.5% | Net Apoptosis (HN5 cells; HN5; GW589522 6.25 μM 24 h, then Ex 9 0 μM 4 h): 2.5% | Net Apoptosis (HN5 cells; HN5; GW589522 12.5 μM 24 h, then Ex 9 0 μM 4 h): 5.1% | EC50 (HN5 cells; [11]): 15.9 µM

O=c1cc(N2CCOCC2)oc2c(-c3ccccc3)cccc12 [LY294002, 2-(4-morpholinyl)-8-phenyl-4H-1-benzopyran-4-one, reference compound]
EC50 (HN5 cells; [1]): 14.5 µM | EC50 (HN5 cells; [9]): 17.2 µM | EC50 (HN5 cells; [2]): 52.9 µM | EC50 (HN5 cells; [10]): 44.3 µM | EC50 (HN5 cells; Homo sapiens, HN5, 24 h; drug alone (Table 1); concentration giving 50% effect; read-out: Dm): 186 µM | EC50 (HN5 cells; [11]): 123 µM | Apoptosis (FIG. 6) (T47D cells): little effect | Net Apoptosis (T47D cells; [12]): 2.2% | Net avg A405 nm (T47D cells; [12]): 0.041 | Net Apoptosis (T47D cells; [13]): 3.6% | Net avg A405 nm (T47D cells; [13]): 0.063 | Net Apoptosis (T47D cells; [14]): 4.5% | Net avg A405 nm (T47D cells; [14]): 0.077 | Net Apoptosis (MDA-MB468 cells; [15]): 4.8% | Net avg A405 nm (MDA-MB468 cells; [15]): 0.294 | Net Apoptosis (MDA-MB468 cells; [16]): 6.5% | Net avg A405 nm (MDA-MB468 cells; [16]): 0.314 | Net Apoptosis (MDA-MB468 cells; [17]): 8.6% | Net avg A405 nm (MDA-MB468 cells; [17]): 0.338 | Net Apoptosis (MDA-MB468 cells; [18]): 9.0% | Net avg A405 nm (MDA-MB468 cells; [18]): 0.344 | Net Apoptosis (MDA-MB468 cells; [19]): 13.7% | Net avg A405 nm (MDA-MB468 cells; [19]): 0.399
